Measurements taken from article PMC9820377, “Molecular Characterization and Expression Patterns of Two Pheromone-Binding Proteins from the Diurnal Moth Phauda flammans (Walker) (Lepidoptera: Zygaenoidea: Phaudidae)” (International Journal of Molecular Sciences, 2022).

How the values were obtained:
[1] = target: PflaPBP2 (Phauda flammans, UniProt A0A6M6R985); assay: Fluorescence competitive binding assay with 1-NPN probe, PflaPBP2; conditions: recombinant protein 2 µM, 1-NPN 2 µM, 50 mM Tris-HCl buffer; for Ki: calculated from IC50 and K1-NPN, pH 7.4; for IC50: pH 7.4, room temperature
Procedure: (§1) An RF-5301PC fluorescence spectrophotometer (Shimadzu, Kyoto, Japan) was used in this experiment for fluorescence competitive binding analysis with a 1-cm quartz colorimetric cup at room temperature. N-Phenyl-1-naphthylamine (1-NPN) was used as the probe and applied for the suitability test. The 1-NPN was excited at 337 nm, in which the emission spectra were recorded between 350 and 660 nm. The purified PflaPBP1 and PflaPBP2 were diluted to a final concentration of 2 µM of the protein solution in Tris-HCl buffer and titrated with aliquots of 1 mM 1-NPN dissolved in methanol, which were 0, 2, 4, 8, 12, 16, 20 µM. The maximum fluorescence value (manipulate peak pick) of each excitation was recorded. The binding data were obtained from three independent measurements. The dissociation constants of PflaPBP1/PflaPBP2 for 1-NPN were calculated from Scatchard plots of the binding data by using Prism 5 software (GraphPad, La Jolla, CA, USA) with nonlinear regression for the one site-specific binding method.
The two sex pheromones Z-9-hexadecenal (Z9H, 96.3% chemical purity) and (Z, Z, Z)-9,12,15-octadecatrienal (Z9O, 93% chemical purity) were obtained from Shanghai T & W Pharmaceutical Co., Ltd. (Shanghai, China) and Pherobank BV (Wijk bij Duurstede, The Netherlands). The competitive binding of these two sex pheromone components was measured using 1-NPN (2 µM) as the fluorescent probe with a stoichiometry of 1:1 (protein: ligand). PflaPBP1 or PflaPBP2 was titrated to a final concentration of 2 μmol/L with 50 mM Tris-HCl buffer. […] All sets of fluorescence spectrophotometers were the same as above. The binding data were obtained from three independent measurements. […] The following formula was adopted to calculate the binding affinities (Ki): Ki=[IC50]/1+[1−NPN/K1−NPN] ) where [1-NPN] is the free concentration of 1-NPN, [IC50] is the ligand concentration replacing 50% of the fluorescence reporter, and K1-NPN is the dissociation constant of the PflaPBP/1-NPN complex. The data were fitted with nonlinear regression model using Prism software (version 5.0).

[2] = target: PflaPBP1 (Phauda flammans, UniProt A0A6M6RBM3); assay: Fluorescence competitive binding assay with 1-NPN probe, PflaPBP1; conditions: recombinant protein 2 µM, 1-NPN 2 µM, 50 mM Tris-HCl buffer; for Ki: calculated from IC50 and K1-NPN, pH 7.4; for IC50: pH 7.4, room temperature
Procedure: as §1
The two sex pheromones Z-9-hexadecenal (Z9H, 96.3% chemical purity) and (Z, Z, Z)-9,12,15-octadecatrienal (Z9O, 93% chemical purity) were obtained from Shanghai T & W Pharmaceutical Co., Ltd. (Shanghai, China) and Pherobank BV (Wijk bij Duurstede, The Netherlands). The competitive binding of these two sex pheromone components was measured using 1-NPN (2 µM) as the fluorescent probe with a stoichiometry of 1:1 (protein: ligand). PflaPBP1 or PflaPBP2 was titrated to a final concentration of 2 μmol/L with 50 mM Tris-HCl buffer. The sex pheromone dissolved in methanol was gradually added to the mixed solution of protein and 1-NPN with the final concentration of each ligand added to the sample ranging from 0 μM to 20 μM. All sets of fluorescence spectrophotometers were the same as above. The binding data were obtained from three independent measurements. […] The following formula was adopted to calculate the binding affinities (Ki): Ki=[IC50]/1+[1−NPN/K1−NPN] ) where [1-NPN] is the free concentration of 1-NPN, [IC50] is the ligand concentration replacing 50% of the fluorescence reporter, and K1-NPN is the dissociation constant of the PflaPBP/1-NPN complex. The data were fitted with nonlinear regression model using Prism software (version 5.0).

Sequence of PflaPBP1 (A0A6M6RBM3 entry or part of it): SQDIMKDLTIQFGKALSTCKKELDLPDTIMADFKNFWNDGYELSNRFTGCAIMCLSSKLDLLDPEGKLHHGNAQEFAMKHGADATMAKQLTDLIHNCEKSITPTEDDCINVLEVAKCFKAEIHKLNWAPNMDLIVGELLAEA
Sequence of PflaPBP2 (A0A6M6R985 entry or part of it): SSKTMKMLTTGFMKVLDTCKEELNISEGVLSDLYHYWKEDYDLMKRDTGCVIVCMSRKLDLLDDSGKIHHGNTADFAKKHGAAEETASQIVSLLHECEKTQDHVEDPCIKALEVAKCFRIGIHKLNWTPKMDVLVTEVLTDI

Ki [1] [µM]	IC50 [1] [µM]	Ki [2] [µM]	IC50 [2] [µM]	Structure (SMILES)
24.8	34	38.5	52.7	CC/C=C\C/C=C\C/C=C\CCCCCCCC=O [(Z, Z, Z)-9, 12, 15-octadecatrienal]
109	149	21.3	29.1	CCCCCC/C=C\CCCCCCCC=O [Z-9-hexadecenal]
